The target of test [1] is KRAS G12D (Homo sapiens (Human), UniProt P01116+P62937, G12D). As to the kind of experiment: Ras-Raf (BRAF RBD) disruption / FRET / MOA assay, KRAS G12D. The format is biochemical. The following applies: Ras-Raf disruption/FRET/MOA assay; class symbols; read-out: KRAS G12D FRET data IC50. Summed up: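 Ternary complex formation (Ras–compound–cyclophilin A) displacing BRAF RBD, monitored by TR-FRET. Three hours at 25° C with compound (top 30 μM final), then 1.5 h with the labelled antibodies. Lower ratio than DMSO indicates disruption; IC50 reported.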
Sequence of KRAS G12D (P01116-2 other isoform, or with tags, fused parts or gaps G12D): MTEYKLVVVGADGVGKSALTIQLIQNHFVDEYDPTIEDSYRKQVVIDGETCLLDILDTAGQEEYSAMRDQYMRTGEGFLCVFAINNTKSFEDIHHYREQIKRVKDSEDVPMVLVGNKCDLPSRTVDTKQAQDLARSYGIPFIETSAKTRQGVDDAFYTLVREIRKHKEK
Sequence of KRAS G12D (P62937 whole entry): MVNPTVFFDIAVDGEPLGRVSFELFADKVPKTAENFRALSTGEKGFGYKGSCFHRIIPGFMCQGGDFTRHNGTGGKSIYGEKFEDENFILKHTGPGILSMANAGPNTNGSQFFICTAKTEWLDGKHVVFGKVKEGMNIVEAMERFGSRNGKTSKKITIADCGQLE

Test [2] relates to NCI-H358 (K-Ras G12C). Nature of the test: CellTiter-Glo cell viability assay, NCI-H358. It counts as cell-based, human. Particulars: Homo sapiens, NCI-H358, 120 h, NCI-H358, 5-day treatment; class symbols; read-out: Additional H358 Cell Viability assay data (K-Ras G12C, IC50). Summed up:
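Four-parameter logistic fits were applied to luminescence data normalized against DMSO-treated wells. Readings were taken on day 5 following direct compound addition, after roughly 30 minutes at room temperature.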

The target of test [3] is KRAS Q61H (Homo sapiens (Human), UniProt P01116+P62937, Q61H). As to the kind of experiment: Ras-Raf (BRAF RBD) disruption / FRET / MOA assay, KRAS Q61H. It counts as biochemical. The following applies: Ras-Raf disruption/FRET/MOA assay; class symbols; read-out: KRAS Q61H FRET data IC50. In a few lines:
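Compounds were tested as a 10-point 3-fold dilution series from 30 μM final for their ability to drive ternary complex formation between nucleotide-loaded Ras and cyclophilin A, displacing the BRAF RBD. After 3 h at 25° C., anti-His Eu-W1024 (10 nM) and anti-GST allophycocyanin (50 nM) were added for 1.5 h. A TR-FRET ratio decrease versus DMSO gave IC50.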

Test [4] concerns NCI-H358 cells (K-Ras G12C). As to the kind of experiment: Potency assay: pERK in NCI-H358 cells. Particulars: Homo sapiens, NCI-H358; H358 KRAS G12C; read-out: pERK EC50. The format is cell-based, human. Summed up:
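Compounds are dosed as ten 3-fold dilutions from a 10 mM DMSO stock, in duplicate, and left on cells for 4 h at 37 °C, 5% CO2. Phospho-ERK1/2 is then quantified by AlphaLISA SureFire Ultra or In-Cell Western, and IC50 is derived from a 4-parameter sigmoid against log concentration.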

Where only a bound is given, the exact number is not on record here.

The IC50 is the concentration needed to halve the response being measured. In general, EC50 refers to the concentration needed to bring the measured effect to its halfway point.

Sequence of KRAS Q61H (P01116-2 other isoform, or with tags, fused parts or gaps Q61H): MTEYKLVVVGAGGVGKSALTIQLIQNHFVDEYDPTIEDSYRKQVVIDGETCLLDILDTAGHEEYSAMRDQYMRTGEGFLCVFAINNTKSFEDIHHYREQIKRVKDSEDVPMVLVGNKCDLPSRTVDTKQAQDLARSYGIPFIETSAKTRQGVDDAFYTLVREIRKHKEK
Sequence of KRAS Q61H (P62937 whole entry): as the sequence (P62937 whole entry) above

Regarding `C=CC(=O)N1CC[C@H](C(=O)N(C)[C@H](C(=O)N[C@H]2Cc3cccc(c3)-c3ccc4c(c3)c(c(-c3cccnc3[C@H](C)OC)n4CC)CC(C)(C)COC(=O)[C@@H]3CCCN(N3)C2=O)C(C)(C)F)C1` (atropisomer, axis not shown) [Example A693], the IC50 is > 10000 nM in test [1], 100 to 1000 nM in test [2] and 1000 to 10000 nM in test [3]. Besides, the EC50 in test [4] is < 5000 nM.
The corresponding values for `C=CC(=O)N1CCC2(CCN(C(=O)N(C)[C@H](C(=O)N[C@H]3Cc4nc(cs4)-c4ccc5c(c4)c(c(-c4cccnc4[C@H](C)OC)n5CC)CC(C)(C)COC(=O)[C@@H]4CCCN(N4)C3=O)C(C)C)CC2)C1` (atropisomer, axis not shown) [Example A698] are 100 to 1000 nM, 10 to 100 nM, 10 to 100 nM and < 5000 nM.
Turning to `CCn1c(-c2cccnc2[C@H](C)OC)c2c3cc(ccc31)-c1csc(n1)C[C@H](NC(=O)[C@H](C(C)C)N(C)C(=O)N1CCN(C(=O)/C=C/CN(C)C)C3(CC3)C1)C(=O)N1CCC[C@H](N1)C(=O)OCC(C)(C)C2` (atropisomer, axis not shown) [Example A701], the IC50 lay within 100 to 1000 nM in test [1], 10 to 100 nM in test [2] and 10 to 100 nM in test [3]. In addition, in test [4], the EC50 is < 5000 nM.
On to `C=CC(=O)N1CCC2(CC1)CN(C(=O)N(C)[C@H](C(=O)N[C@H]1Cc3nc(cs3)-c3ccc4c(c3)c(c(-c3cccnc3[C@H](C)OC)n4CC)CC(C)(C)COC(=O)[C@@H]3CCCN(N3)C1=O)C(C)C)C2` (atropisomer, axis not shown) [Example A702], for which the results for the IC50 in test [1], in test [2] and in test [3] were 1000 to 10000 nM, 10 to 100 nM and 10 to 100 nM, respectively. Moreover, the EC50 in test [4] was < 5000 nM.
As for `C=CC(=O)N(C)[C@H]1C[C@@H](N(C)C(=O)N(C)[C@H](C(=O)N[C@H]2Cc3nc(cs3)-c3ccc4c(c3)c(c(-c3cccnc3[C@H](C)OC)n4CC)CC(C)(C)COC(=O)[C@@H]3CCCN(N3)C2=O)C(C)C)C1` (atropisomer, axis not shown) [Example A704], the results for the half-inhibitory concentration (IC50) in test [1], in test [2] and in test [3] were 100 to 1000 nM, < 10 nM and 10 to 100 nM, respectively. Also, the EC50 in test [4] is < 5000 nM.
Taken in the same sequence, the figures for `C=CC(=O)N(C)[C@H]1C[C@H](N(C)C(=O)N(C)[C@H](C(=O)N[C@H]2Cc3nc(cs3)-c3ccc4c(c3)c(c(-c3cccnc3[C@H](C)OC)n4CC)CC(C)(C)COC(=O)[C@@H]3CCCN(N3)C2=O)C(C)C)C1` (atropisomer, axis not shown) [Example A712] were 100 to 1000 nM, < 10 nM, 10 to 100 nM and < 5000 nM.
Take `C=CC(=O)N1CCO[C@@H]2CN(C(=O)N(C)[C@H](C(=O)N[C@H]3Cc4nc(cs4)-c4ccc5c(c4)c(c(-c4cccnc4[C@H](C)OC)n5CC)CC(C)(C)COC(=O)[C@@H]4CCCN(N4)C3=O)C(C)C)C[C@@H]21` (atropisomer, axis not shown) [Example A714]: the IC50 in test [1] was 1000 to 10000 nM; in test [2] it was < 10 nM; in test [3], 100 to 1000 nM. Further, the EC50 in test [4] was < 5000 nM.
In the case of `CCn1c(-c2cccnc2[C@H](C)OC)c2c3cc(ccc31)N1CCC[C@@H](C[C@H](NC(=O)[C@@H](COC3CN(C(=O)C#CC(C)(C)N(C)C)C3)C(C)C)C(=O)N3CCC[C@H](N3)C(=O)OCC(C)(C)C2)C1` (atropisomer, axis not shown) [Example A715, (2R)-2-(((1-(4-(dimethylamino)-4-methylpent-2-ynoyl)azetidin-3-yl)oxy)methyl)-N-((2^3S,6^3S,4S)-1^1-ethyl-1^2-(2-((S)-1-methoxyethyl)pyridin-3-yl)-10,10-dimethyl-5,7-dioxo-6^1,6^2,6^3,6^4,6^5,6^6-hexahydro-1^1H-8-oxa-1(5,3)-indola-6(1,3)-pyridazina-2(1,3)-piperidinacycloundecaphane-4-yl)-3-methylbutanamide], the IC50 in test [1] was > 10000 nM; in test [2], 10 to 100 nM; in test [3], > 10000 nM. Besides, the EC50 in test [4] was < 5000 nM.
For the compound `C=CC(=O)N1CCN(C(=O)N(C)[C@H](C(=O)N[C@H]2Cc3nc(cs3)-c3ccc4c(c3)c(c(-c3cccnc3[C@H](C)OC)n4CC)CC(C)(C)COC(=O)[C@@H]3CCCN(N3)C2=O)C(C)C)[C@@H]2CC[C@@H]21` (atropisomer, axis not shown) [Example A718], the IC50 in test [1] was 1000 to 10000 nM; in test [2], < 10 nM; in test [3], 10 to 100 nM. Moreover, the EC50 in test [4] was < 5000 nM.
For `C=CC(=O)N1CC[C@]2(CCN(C(=O)N(C)[C@H](C(=O)N[C@H]3Cc4nc(cs4)-c4ccc5c(c4)c(c(-c4cccnc4[C@H](C)OC)n5CC)CC(C)(C)COC(=O)[C@@H]4CCCN(N4)C3=O)C(C)C)C2)C1` (atropisomer, axis not shown) [Example A719], the IC50 in test [1] lay in the range of 100 to 1000 nM; in test [2], 10 to 100 nM; in test [3], 10 to 100 nM. Further, in test [4], the EC50 is < 5000 nM.
As for `C=CC(=O)N1CC(OC[C@H](C(=O)N[C@H]2Cc3cc(F)cc(c3)-c3ccc4c(c3)c(c(-c3cccnc3[C@H](C)OC)n4CC(F)(F)F)CC(C)(C)COC(=O)[C@@H]3CCCN(N3)C2=O)C(C)C)C1` (atropisomer, axis not shown) [Example A725], the IC50 in test [1] was > 10000 nM; in test [2], 10 to 100 nM; in test [3] it was 100 to 1000 nM. The EC50 in test [4] is < 5000 nM.
For `C=CC(=O)N1CC[C@H](N(C)C(=O)N(C)[C@H](C(=O)N[C@H]2Cc3nc(cs3)-c3ccc4c(c3)c(c(-c3cccnc3[C@H](C)OC)n4CC)CC(C)(C)COC(=O)[C@@H]3CCCN(N3)C2=O)C(C)C)C1` (atropisomer, axis not shown) [Example A728], the values for the IC50 in test [1], in test [2] and in test [3] were 1000 to 10000 nM, 10 to 100 nM and 100 to 1000 nM, respectively. Besides, in test [4], the EC50 is < 5000 nM.
On to `C=CC(=O)N1CCN(C(=O)N(C)[C@H](C(=O)N[C@H]2Cc3nc(cs3)-c3ccc4c(c3)c(c(-c3cccnc3[C@H](C)OC)n4CC)CC(C)(C)COC(=O)[C@@H]3CCCN(N3)C2=O)C(C)C)[C@H]2CC[C@H]21` (atropisomer, axis not shown) [Example A734], for which the IC50 in test [1] lay within 100 to 1000 nM; in test [2], 10 to 100 nM; in test [3] it was 10 to 100 nM. The EC50 in test [4] was < 5000 nM.
On to `C=CC(=O)N1CC2(C1)OCCCN2C(=O)N(C)[C@H](C(=O)N[C@H]1Cc2nc(cs2)-c2ccc3c(c2)c(c(-c2cccnc2[C@H](C)OC)n3CC)CC(C)(C)COC(=O)[C@@H]2CCCN(N2)C1=O)C(C)C` (atropisomer, axis not shown) [Example A735, 2-acryloyl-N-((2S)-1-(((6^3S,4S,Z)-1^1-ethyl-1^2-(2-((S)-1-methoxyethyl)pyridin-3-yl)-10,10-dimethyl-5,7-dioxo-6^1,6^2,6^3,6^4,6^5,6^6-hexahydro-1^1H-8-oxa-2(4,2)-thiazola-1(5,3)-indola-6(1,3)-pyridazinacycloundecaphane-4-yl)amino)-3-methyl-1-oxobutan-2-yl)-N-methyl-5-oxa-2,9-diazaspiro[3.5]nonane-9-carboxamide], for which the results for the IC50 in test [1], in test [2] and in test [3] were > 10000 nM, < 10 nM and 1000 to 10000 nM, respectively. Moreover, the EC50 in test [4] is < 5000 nM.
The corresponding values for `C=CC(=O)N(C)[C@@H]1C[C@H]1N(C)C(=O)N(C)[C@H](C(=O)N[C@H]1Cc2nc(cs2)-c2ccc3c(c2)c(c(-c2cccnc2[C@H](C)OC)n3CC)CC(C)(C)COC(=O)[C@@H]2CCCN(N2)C1=O)C(C)C` (atropisomer, axis not shown) [Example A739] are 1000 to 10000 nM, 10 to 100 nM, 10 to 100 nM and < 5000 nM.
Taken in the same sequence, the figures for `C=CC(=O)N1CC[C@H](C(=O)N(C)[C@H](C(=O)N[C@H]2Cc3cccc(c3)-c3ccc4c(c3)c(c(-c3cnccc3[C@H](C)OC)n4CC)CC(C)(C)COC(=O)[C@@H]3CCCN(N3)C2=O)C(C)C)C1` (single isomer, unassigned) [Example A115] were > 10000 nM, 10 to 100 nM, 100 to 1000 nM and < 5000 nM.
The corresponding values for `C=CC(=O)N1CC[C@H](C(=O)N(C)[C@H](C(=O)N[C@H]2Cc3cc(O)cc(c3)-c3ccc4c(c3)c(c(-c3cc(N5CC(OC)C5)ccn3)n4CC)CC(C)(C)COC(=O)[C@@H]3CCCN(N3)C2=O)C(C)C)C1` [Example A104] are > 10000 nM, < 10 nM, 100 to 1000 nM and < 5000 nM.
On to `C=CC(=O)N1CC[C@H](C(=O)N(C)[C@H](C(=O)N[C@H]2Cc3cc(O)cc(c3)-c3ccc4c(c3)c(c(-c3cc(C#N)cnc3COC)n4CC)CC(C)(C)COC(=O)[C@@H]3CCCN(N3)C2=O)C(C)C)C1` [Example A105], for which the IC50 in test [1] fell in the range of 1000 to 10000 nM; in test [2] it was 10 to 100 nM; in test [3], 10 to 100 nM. For the same compound, in test [4], the EC50 was < 5000 nM.

The values are drawn from patent US11566007B2, “Ras inhibitors” (Revolution Medicines, Inc., priority 2019, dated 2023).
